Assay results reported in patent US7223781B2 (Beiersdorf AG, priority 2001, dated 2007).
Where two headings read alike, the source gives them in different places.

How the values were obtained:
[1] = molecular target: T1, COX-1 (Sus scrofa, UniProt A0A287ANF9); test: In-vitro test for COX-1 inhibition: fluorimetric quantification of malonaldehyde (MDA) in A23187-activated pig platelet suspension; format: cell-based; settings: pig platelets, read-out: MDA pIC50 (converted)
T1 construct: A platelet suspension obtained from pig's blood is preincubated with the test substance; endogenous in cells; host or cells: platelets from pig's blood
T1 sequence (A0A287ANF9 25-600): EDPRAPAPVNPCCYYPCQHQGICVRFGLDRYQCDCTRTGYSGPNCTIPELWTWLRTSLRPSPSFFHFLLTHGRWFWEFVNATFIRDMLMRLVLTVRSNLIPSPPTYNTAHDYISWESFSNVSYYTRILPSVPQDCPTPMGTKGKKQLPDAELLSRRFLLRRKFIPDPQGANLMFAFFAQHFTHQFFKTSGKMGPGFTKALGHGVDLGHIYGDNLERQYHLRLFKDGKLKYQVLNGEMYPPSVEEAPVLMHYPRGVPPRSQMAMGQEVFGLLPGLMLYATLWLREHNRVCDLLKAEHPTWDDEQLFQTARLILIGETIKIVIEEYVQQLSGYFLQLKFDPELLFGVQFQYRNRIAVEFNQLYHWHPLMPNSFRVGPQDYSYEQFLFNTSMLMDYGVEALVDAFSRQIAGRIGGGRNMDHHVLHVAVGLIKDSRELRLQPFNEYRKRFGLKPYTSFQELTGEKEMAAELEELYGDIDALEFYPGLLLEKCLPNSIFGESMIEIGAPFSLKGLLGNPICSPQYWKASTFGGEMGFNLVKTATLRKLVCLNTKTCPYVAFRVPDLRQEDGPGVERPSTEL
Procedure, shortened: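 Pig platelets (8×10^8 cells/ml) were preincubated with compound for 10 min at 37°C, then stimulated with A23187 ([…]) for 10 min. Malonaldehyde was condensed with thiobarbituric acid and read by fluorescence at 533/550 nm; IC50 taken from a calibration curve.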

[2] = molecular target: T2, COX-2 (Homo sapiens, UniProt P35354); test: In-vitro test for COX-2 inhibition: PGE2 ELISA in LPS-stimulated human monocytes; format: cell-based; settings: Table 18, LPS-stimulated human monocytes, PGE2
T2 construct: endogenous in cells; host or cells: LPS-stimulated human monocytes (Ficoll extraction)
T2 sequence (P35354 18-604): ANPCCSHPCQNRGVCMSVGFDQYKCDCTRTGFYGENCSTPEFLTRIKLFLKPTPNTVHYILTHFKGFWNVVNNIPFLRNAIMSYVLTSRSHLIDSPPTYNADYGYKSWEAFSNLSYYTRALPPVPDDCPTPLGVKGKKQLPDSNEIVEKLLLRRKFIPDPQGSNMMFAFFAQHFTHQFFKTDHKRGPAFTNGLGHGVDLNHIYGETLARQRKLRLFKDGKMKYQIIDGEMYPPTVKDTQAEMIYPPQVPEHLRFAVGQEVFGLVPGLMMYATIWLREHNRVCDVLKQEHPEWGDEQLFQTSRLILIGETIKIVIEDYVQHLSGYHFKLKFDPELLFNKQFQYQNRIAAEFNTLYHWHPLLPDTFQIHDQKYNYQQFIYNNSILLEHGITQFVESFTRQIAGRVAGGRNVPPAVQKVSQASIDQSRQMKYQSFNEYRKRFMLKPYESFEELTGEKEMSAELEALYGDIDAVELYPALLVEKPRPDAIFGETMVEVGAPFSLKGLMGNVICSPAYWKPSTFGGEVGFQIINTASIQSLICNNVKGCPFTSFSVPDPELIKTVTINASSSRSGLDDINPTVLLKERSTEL
Method: In-vitro Test Procedure for the Determination of COX-2 Inhibition
The procedure is carried out on LPS-stimulated human monocytes which have been obtained by Ficoll extraction. The measurement variable used is the PGE2 formed, which is determined by means of ELISA.

Row | IC50 ([1]; Table 9, alkylamides) | IC50 ([2]; read-out: COX-2 inhibition pIC50 (converted)) | IC50 ([1]; Table 16, dimethyl compounds) | IC50 ([2]; read-out: COX-2 inhibition IC50) | SMILES
1 | 0.01 µM | 2.69 µM |  |  | COc1ccc(-c2nc(SCCNC(C)=O)[nH]c2-c2ccc(OC)cc2)cc1 [Compound T49, N^1-{2-[4,5-Bis(4-methoxyphenyl)-1H-imidazol-2-ylsulfanyl]ethyl}acetamide]
2 |  |  | 0.0832 µM | 0.91 µM | COc1ccc(-c2nc(SCCN(C)C(=O)c3ccccc3)n(C)c2-c2ccc(OC)cc2)cc1 [Compound T31]
